Where two headings read alike, the source gives them in different places.
Tests used:
[1] = variable temperature CD, 20 mM sodium phosphate buffer, pH 7
[2] = biological target: proteinase K (Parengyodontium album, UniProt P06873); test: HPLC-based proteolysis assay with proteinase K; assay type: in vitro ADME
proteinase K, sequence (P06873 106-384, species assumed): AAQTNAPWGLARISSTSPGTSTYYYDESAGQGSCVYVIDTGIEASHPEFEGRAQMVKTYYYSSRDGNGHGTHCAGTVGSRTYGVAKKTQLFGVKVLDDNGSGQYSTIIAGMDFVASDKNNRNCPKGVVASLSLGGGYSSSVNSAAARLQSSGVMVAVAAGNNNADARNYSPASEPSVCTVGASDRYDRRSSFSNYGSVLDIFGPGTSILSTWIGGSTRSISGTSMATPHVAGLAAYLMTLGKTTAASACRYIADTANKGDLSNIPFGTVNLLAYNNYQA

| SMILES | Tm (melting temperature) ([1]; 100 μM protein) | k, apparent proteolysis rate constant [2] | Tm (melting temperature) ([1]; 50 μM protein) |
| --- | --- | --- | --- |
| CC[C@H](C)[C@H](NC(=O)[C@H](Cc1c[nH]cn1)NC(=O)[C@H](CC(N)=O)NC(=O)[C@H](Cc1ccccc1)NC(=O)[C@H](Cc1ccc(O)cc1)NC(=O)[C@H](Cc1ccc(O)cc1)NC(=O)[C@@H](NC(=O)[C@H](CCCNC(=N)N)NC(=O)CNC(=O)[C@H](CO)NC(=O)[C@H](CO)NC(=O)[C@H](CCCNC(=N)N)NC(=O)[C@H](CC(N)=O)NC(=O)[C@H](CCSC)NC(=O)[C@H](CCCNC(=N)N)NC(=O)[C@H](CCCCN)NC(=O)[C@H](CCC(=O)O)NC(=O)[C@H](Cc1c[nH]c2ccccc12)NC(=O)CNC(=O)[C@@H]1CCCN1C(=O)[C@@H]1CCCN1C(=O)[C@H](CC(C)C)NC(=O)[C@@H](N)CCCCN)C(C)C)C(=O)N[C@H](C(=O)N[C@@H](CC(N)=O)C(=O)N[C@@H](C)C(=O)N[C@@H](CO)C(=O)N[C@@H](CCC(N)=O)C(=O)N[C@@H](Cc1ccccc1)C(=O)N[C@@H](CCC(=O)O)C(=O)N[C@@H](CCCNC(=N)N)C(=O)N1CCC[C@H]1C(=O)N[C@@H](CO)C(=O)NCC(=O)O)[C@@H](C)O [16N] | 50.6 ±0.2 °C | – | – |
| CC[C@H](C)[C@H](NC(=O)[C@H](Cc1c[nH]cn1)NC(=O)[C@H](CC(N)=O)NC(=O)[C@H](Cc1ccccc1)NC(=O)[C@H](Cc1ccc(O)cc1)NC(=O)[C@H](Cc1ccc(O)cc1)NC(=O)[C@@H](NC(=O)[C@H](CCCNC(=N)N)NC(=O)CNC(=O)[C@H](CO)NC(=O)[C@H](CO)NC(=O)[C@H](CCCNC(=N)N)NC(=O)[C@H](CCC(N)=O)NC(=O)[C@H](CCSC)NC(=O)[C@H](CCCNC(=N)N)NC(=O)[C@H](CCCCN)NC(=O)[C@H](CCC(=O)O)NC(=O)[C@H](Cc1c[nH]c2ccccc12)NC(=O)CNC(=O)[C@@H]1CCCN1C(=O)[C@@H]1CCCN1C(=O)[C@H](CC(C)C)NC(=O)[C@@H](N)CCCCN)C(C)C)C(=O)N[C@H](C(=O)N[C@@H](CC(N)=O)C(=O)N[C@@H](C)C(=O)N[C@@H](CO)C(=O)N[C@@H](CCC(N)=O)C(=O)N[C@@H](Cc1ccccc1)C(=O)N[C@@H](CCC(=O)O)C(=O)N[C@@H](CCCNC(=N)N)C(=O)N1CCC[C@H]1C(=O)N[C@@H](CO)C(=O)NCC(=O)O)[C@@H](C)O [16Q] | – | 8.9 ±0.2 s^−1 × 10^3 | 56.6 ±0.1 °C |
| CC[C@H](C)[C@H](NC(=O)[C@H](Cc1c[nH]cn1)NC(=O)[C@H](CC(N)=O)NC(=O)[C@H](Cc1ccccc1)NC(=O)[C@H](Cc1ccc(O)cc1)NC(=O)[C@H](Cc1ccc(O)cc1)NC(=O)[C@@H](NC(=O)[C@H](CCCNC(=N)N)NC(=O)CNC(=O)[C@H](CO)NC(=O)[C@H](CC(N)=O)NC(=O)[C@H](CCCNC(=N)N)NC(=O)[C@H](CO)NC(=O)[C@H](CCSC)NC(=O)[C@H](CCCNC(=N)N)NC(=O)[C@H](CCCCN)NC(=O)[C@H](CCC(=O)O)NC(=O)[C@H](Cc1c[nH]c2ccccc12)NC(=O)CNC(=O)[C@@H]1CCCN1C(=O)[C@@H]1CCCN1C(=O)[C@H](CC(C)C)NC(=O)[C@@H](N)CCCCN)C(C)C)C(=O)N[C@H](C(=O)N[C@@H](CC(N)=O)C(=O)N[C@@H](C)C(=O)N[C@@H](CO)C(=O)N[C@@H](CCC(N)=O)C(=O)N[C@@H](Cc1ccccc1)C(=O)N[C@@H](CCC(=O)O)C(=O)N[C@@H](CCCNC(=N)N)C(=O)N1CCC[C@H]1C(=O)N[C@@H](CO)C(=O)NCC(=O)O)[C@@H](C)O [18N] | 57.5 ±0.1 °C | – | – |
| CC[C@H](C)[C@H](NC(=O)[C@H](Cc1c[nH]cn1)NC(=O)[C@H](CC(N)=O)NC(=O)[C@H](Cc1ccccc1)NC(=O)[C@H](Cc1ccc(O)cc1)NC(=O)[C@H](CC(N)=O)NC(=O)[C@@H](NC(=O)[C@H](CCCNC(=N)N)NC(=O)CNC(=O)[C@H](CO)NC(=O)[C@H](CO)NC(=O)[C@H](CCCNC(=N)N)NC(=O)[C@H](CO)NC(=O)[C@H](CCSC)NC(=O)[C@H](CCCNC(=N)N)NC(=O)[C@H](CCCCN)NC(=O)[C@H](CCC(=O)O)NC(=O)[C@H](Cc1c[nH]c2ccccc12)NC(=O)CNC(=O)[C@@H]1CCCN1C(=O)[C@@H]1CCCN1C(=O)[C@H](CC(C)C)NC(=O)[C@@H](N)CCCCN)C(C)C)C(=O)N[C@H](C(=O)N[C@@H](CC(N)=O)C(=O)N[C@@H](C)C(=O)N[C@@H](CO)C(=O)N[C@@H](CCC(N)=O)C(=O)N[C@@H](Cc1ccccc1)C(=O)N[C@@H](CCC(=O)O)C(=O)N[C@@H](CCCNC(=N)N)C(=O)N1CCC[C@H]1C(=O)N[C@@H](CO)C(=O)NCC(=O)O)[C@@H](C)O [23N] | – | – | 27.7 ±0.3 °C |
| CC[C@H](C)[C@H](NC(=O)[C@H](CC(N)=O)NC(=O)[C@H](CC(N)=O)NC(=O)[C@H](Cc1ccccc1)NC(=O)[C@H](Cc1ccc(O)cc1)NC(=O)[C@H](Cc1ccc(O)cc1)NC(=O)[C@@H](NC(=O)[C@H](CCCNC(=N)N)NC(=O)CNC(=O)[C@H](CO)NC(=O)[C@H](CO)NC(=O)[C@H](CCCNC(=N)N)NC(=O)[C@H](CO)NC(=O)[C@H](CCSC)NC(=O)[C@H](CCCNC(=N)N)NC(=O)[C@H](CCCCN)NC(=O)[C@H](CCC(=O)O)NC(=O)[C@H](Cc1c[nH]c2ccccc12)NC(=O)CNC(=O)[C@@H]1CCCN1C(=O)[C@@H]1CCCN1C(=O)[C@H](CC(C)C)NC(=O)[C@@H](N)CCCCN)C(C)C)C(=O)N[C@H](C(=O)N[C@@H](CC(N)=O)C(=O)N[C@@H](C)C(=O)N[C@@H](CO)C(=O)N[C@@H](CCC(N)=O)C(=O)N[C@@H](Cc1ccccc1)C(=O)N[C@@H](CCC(=O)O)C(=O)N[C@@H](CCCNC(=N)N)C(=O)N1CCC[C@H]1C(=O)N[C@@H](CO)C(=O)NCC(=O)O)[C@@H](C)O [27N] | – | – | 54.9 ±0.1 °C |
| CC[C@H](C)[C@H](NC(=O)[C@H](Cc1c[nH]cn1)NC(=O)[C@H](CC(N)=O)NC(=O)[C@H](Cc1ccccc1)NC(=O)[C@H](Cc1ccc(O)cc1)NC(=O)[C@H](Cc1ccc(O)cc1)NC(=O)[C@@H](NC(=O)[C@H](CCCNC(=N)N)NC(=O)CNC(=O)[C@H](CO)NC(=O)[C@H](CO)NC(=O)[C@H](CCCNC(=N)N)NC(=O)[C@H](CO)NC(=O)[C@H](CCSC)NC(=O)[C@H](CCCNC(=N)N)NC(=O)[C@H](CCCCN)NC(=O)[C@H](CCC(=O)O)NC(=O)[C@H](Cc1c[nH]c2ccccc12)NC(=O)CNC(=O)[C@@H]1CCCN1C(=O)[C@@H]1CCCN1C(=O)[C@H](CC(C)C)NC(=O)[C@@H](N)CCCCN)C(C)C)C(=O)N[C@@H](CC(N)=O)C(=O)N[C@@H](CC(N)=O)C(=O)N[C@@H](C)C(=O)N[C@@H](CO)C(=O)N[C@@H](CCC(N)=O)C(=O)N[C@@H](Cc1ccccc1)C(=O)N[C@@H](CCC(=O)O)C(=O)N[C@@H](CCCNC(=N)N)C(=O)N1CCC[C@H]1C(=O)N[C@@H](CO)C(=O)NCC(=O)O [29N] | – | – | 50.0 ±0.1 °C |
| CC[C@H](C)[C@H](NC(=O)[C@H](Cc1c[nH]cn1)NC(=O)[C@H](CC(N)=O)NC(=O)[C@H](Cc1ccccc1)NC(=O)[C@H](Cc1ccc(O)cc1)NC(=O)[C@H](Cc1ccc(O)cc1)NC(=O)[C@@H](NC(=O)[C@H](CCCNC(=N)N)NC(=O)CNC(=O)[C@H](CO)NC(=O)[C@H](CO)NC(=O)[C@H](CCCNC(=N)N)NC(=O)[C@H](CO)NC(=O)[C@H](CCSC)NC(=O)[C@H](CCCNC(=N)N)NC(=O)[C@H](CCCCN)NC(=O)[C@H](CCC(=O)O)NC(=O)[C@H](Cc1c[nH]c2ccccc12)NC(=O)CNC(=O)[C@@H]1CCCN1C(=O)[C@@H]1CCCN1C(=O)[C@H](CC(C)C)NC(=O)[C@@H](N)CCCCN)C(C)C)C(=O)N[C@H](C(=O)N[C@@H](CC(N)=O)C(=O)N[C@@H](C)C(=O)N[C@@H](CC(N)=O)C(=O)N[C@@H](CCC(N)=O)C(=O)N[C@@H](Cc1ccccc1)C(=O)N[C@@H](CCC(=O)O)C(=O)N[C@@H](CCCNC(=N)N)C(=O)N1CCC[C@H]1C(=O)N[C@@H](CO)C(=O)NCC(=O)O)[C@@H](C)O [32N] | 45.1 ±0.2 °C | – | – |

From PMC6330093 (Bioconjugate chemistry, 2017)
